Reference: US20210155644A1, “CYCLOPENTENYL PURINE DERIVATIVE OR SALT THEREOF” (Fujifilm Corporation, priority 2018, published 2021)

What follows are molecules tested on adenovirus type 6 (ADV6) (assay: Evaluation of anti-adenovirus activity: CRL-11516 cells infected with ADV6, anti-hexon staining, count of stained cells). Conditions: CRL-11516 cells infected with ADV6, 48 hours culture, concentration reducing dark brown-stained cells by 50%; read-out: Anti-AdV activity EC50.
Format: cell-based
Method: A system in which CRL-11516 cells (available from ATCC) were infected with adenovirus type 6 (hereinafter, referred to as ADV6) was constructed, and a test for evaluating the anti-adenovirus activity of the compound according to the embodiment of the present invention and the compound of Comparative Example was carried out using the system. The test for evaluating the anti-adenovirus activity was carried out according to the method described below.
CRL-11516 cells were added to a 96-well plate at a cell density of 1×10^4 cells/well and cultured at 37° C. for 24 hours. After the culture was completed, the cell culture liquid was removed, and a serial dilution (100 μL) of the compound according to the embodiment of the present invention or the compound of Comparative Example was added. ADV6 (corresponding to 50TCID50) was added thereto, followed by culturing at 37° C. for 48 hours.
After the culture was completed, the infected cells were stained using Adeno-X Rapid Titer Kit (manufactured by Takara Bio Inc.). 100% methanol was added thereto and the cells were fixed at −20° C. for 10 minutes. The plate was washed three times with phosphate buffered saline (hereinafter, referred to as PBS) and then Mouse Anti-Hexon Antibody was added thereto, followed by incubation at 37° C. for 1 hour. After the incubation was completed, the plate was washed three times with PBS, and Rat Anti-Mouse Antibody was added thereto, followed by incubation at 37° C. for 1 hour. After the incubation was completed, a mixed staining solution of Stable Peroxidase Buffer:DAB Substrate=10:1 was added thereto, followed by incubation at room temperature for 10 minutes for staining of the cells.
The number of dark brown-stained cells was counted under a microscope, and the concentration of the test drug that reduces the dark brown-stained cells by 50% was defined as EC50. EC50 values were calculated for the triplicate test results, and a mean value and a standard deviation thereof were determined.

Question: Which EC50 does the source give for `COc1nc(N)nc2c1ncn2[C@H]1C=C[C@@H](COP(=O)(N[C@@H](CC(C)C)C(=O)OC(C)C)Oc2ccccc2)C1` (single isomer, unassigned) [Example 7-1-2] here?
Answer: Its EC50 is 100 to 1000 nM.

Question: Which EC50 does the source give for `CC(C)OC(=O)[C@H](C)NP(=O)(OC[C@@H]1C=C[C@H](n2cnc3c(Cl)nc(N)nc32)C1)Oc1ccccc1` (stereo partly drawn) [Example 2-2-1, isopropyl ((((1S,4R)-4-(2-amino-6-chloro-9H-purin-9-yl)cyclopent-2-en-1-yl)methoxy)(phenoxy)phosphoryl)-L-alaninate] here?
Answer: The EC50 was 100 to 1000 nM.

Question: `COc1nc(N)nc2c1ncn2[C@H]1C=C[C@@H](COP(=O)(N[C@@H](C)C(=O)OC(C)C)Oc2ccc(Cl)cc2)C1` (single isomer, unassigned) [Example 4-8-1] was tested. Which EC50 did it give?
Answer: The EC50 was 10 to 100 nM.

Question: How did the EC50 turn out when `COC(=O)[C@H](C)NP(=O)(OC[C@@H]1C=C[C@H](n2cnc3c(Cl)nc(N)nc32)C1)Oc1ccc(Cl)cc1` (stereo partly drawn) [Example 4-5-2, methyl ((((1 S,4R)-4-(2-amino-6-chloro-9H-purin-9-yl)cyclopent-2-en-1-yl)methoxy)(4-chlorophenoxy)phosphoryl)-L-alaninate] was run?
Answer: The EC50 was 10 to 100 nM.

Same assay, conditions: Human mastadenovirus C, 48 h, CRL-11516 cells infected with ADV6, 48 hours culture, concentration reducing dark brown-stained cells by 50%; read-out: Anti-AdV activity EC50

Question: How did the EC50 turn out when `CC(C)OC(=O)[C@H](C)N[P@](=O)(OC[C@@H]1C=C[C@H](n2cnc3c(OC(C)C)nc(N)nc32)C1)Oc1ccccc1` [Example 2-2-20, Isopropyl ((S)-(((1S,4R)-4-(2-amino-6-isopropoxy-9H-purin-9-yl)cyclopent-2-en-1-yl)methoxy) (phenoxy)phosphoryl)-L-alaninate] was run?
Answer: The EC50 was 100 to 1000 nM.

Question: With `COC(=O)[C@H](C)NP(=O)(OC[C@@H]1C=C[C@H](n2cnc3c(OC)nc(N)nc32)C1)Oc1ccccc1` (stereo partly drawn) [Example 4-2-1, methyl ((((1 S,4R)-4-(2-amino-6-methoxy-9H-purin-9-yl)cyclopent-2-en-1-yl)methoxy)(phenoxy)phosphoryl)-L-alaninate] as the molecule, how does the EC50 read?
Answer: Its EC50 is 10 to 100 nM.

Question: With `CC(C)OC(=O)[C@H](C)N[P@](=O)(OC[C@@H]1C=C[C@H](n2cnc3c(N(C)C)nc(N)nc32)C1)Oc1ccccc1` [Example 2-2-26, Isopropyl ((S)-(((1S,4R)-4-(2-amino-6-(dimethylamino)-9H-purin-9-yl)cyclopent-2-en-1-yl)methoxy) (phenoxy)phosphoryl)-L-alaninate] as the molecule, how does the EC50 read?
Answer: Its EC50 is 100 to 1000 nM.

Question: For `COC(=O)[C@H](C)NP(=O)(OC[C@@H]1C=C[C@H](n2cnc3c(NC4CC4)nc(N)nc32)C1)Oc1ccccc1` (stereo partly drawn) [Example 2-2-3, Methyl ((((1S,4R)-4-(2-amino-6-(cyclopropyl-amino)-9H-purin-9-yl)cyclopent-2-en-1-yl)methoxy) (phenoxy)phosphoryl)-L-alaninate], which EC50 is on record?
Answer: Its EC50 is 10 to 100 nM.

Same assay, conditions: Human mastadenovirus C; CRL-11516 cells infected with ADV6, 48 hours culture, concentration reducing dark brown-stained cells by 50%; read-out: Anti-AdV activity EC50

Question: For `COc1nc(N)nc2c1ncn2[C@H]1C=C[C@@H](COP(=O)(N[C@@H](C)C(=O)OC(C)C)OCCSC(=O)C(C)(C)C)C1` (stereo partly drawn) [Example 1-2-74, isopropyl ((((1S,4R)-4-(2-amino-6-methoxy-9H-purin-9-yl)cyclopent-2-en-1-yl)methoxy)(2-(pivaloylthio)ethoxy)phosphoryl)-L-alaninate], which EC50 is on record?
Answer: Its EC50 is 10 to 100 nM.
